Source: PubChem BioAssay (NCI)
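Cells were grown in 96-well plates and exposed to each compound for 48 hours at five concentrations; endpoints were interpolated linearly between bracketing concentrations, or set to the highest concentration if not reached. GI50 marks 50% less growth. TGI is the concentration that stops growth completely.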

Legend:
Experiment in all cases: inhibition of tumour cell growth, NCI panel, 48 h
A498 renal = system: A498 renal
CCRF-CEM leukemia = system: CCRF-CEM leukemia
EKVX NSCLC = system: EKVX NSCLC
K-562 leukemia = system: K-562 leukemia
KM12 colon = system: KM12 colon
MALME-3M melanoma = system: MALME-3M melanoma
MCF7 breast = system: MCF7 breast
MOLT-4 leukemia = system: MOLT-4 leukemia
NCI-H23 lung = system: NCI-H23 lung
OVCAR-5 ovarian = system: OVCAR-5 ovarian
RXF 393 renal = system: RXF 393 renal
SK-MEL-28 melanoma = system: SK-MEL-28 melanoma
SK-OV-3 ovarian = system: SK-OV-3 ovarian
SNB-75 CNS = system: SNB-75 CNS
SR leukemia = system: SR leukemia
SW-620 colon = system: SW-620 colon
TK-10 renal = system: TK-10 renal
U251 CNS = system: U251 CNS
M14 melanoma = system: M14 melanoma

| Structure (SMILES) | TGI (A498 renal) [µM] | TGI (CCRF-CEM leukemia) [µM] | TGI (EKVX NSCLC) [µM] | TGI (K-562 leukemia) [µM] | TGI (KM12 colon) [µM] | TGI (MALME-3M melanoma) [µM] | TGI (MCF7 breast) [µM] | TGI (MOLT-4 leukemia) [µM] | TGI (NCI-H23 lung) [µM] | TGI (OVCAR-5 ovarian) [µM] | TGI (RXF 393 renal) [µM] | TGI (SK-MEL-28 melanoma) [µM] | TGI (SK-OV-3 ovarian) [µM] | TGI (SNB-75 CNS) [µM] | TGI (SR leukemia) [µM] | TGI (SW-620 colon) [µM] | TGI (TK-10 renal) [µM] | TGI (U251 CNS) [µM] | GI50 (CCRF-CEM leukemia) [µM] | TGI (M14 melanoma) [µM] |
| --- | --- | --- | --- | --- | --- | --- | --- | --- | --- | --- | --- | --- | --- | --- | --- | --- | --- | --- | --- | --- |
| O=c1c(-c2ccccc2)c(SCCCN2CCCCC2)n(-c2ccccc2)c(=S)n1-c1ccccc1 | 29 | 50.9 | > 100 | 34.1 | 41.6 | 37.7 | 31.4 | 47 | 42.9 | > 100 | 27.7 | 33.2 | 45.4 | 29.5 | 37.3 | 41.9 | 37.3 | 29.1 | – | – |
| O=c1c2ccccc2nc2n1CCc1c-2[nH]c2ccccc12 | – | > 100 | 60.5 | > 100 | – | 73.7 | – | > 100 | 37.4 | 31.2 | 34.5 | 62.4 | 37.8 | 40.7 | > 100 | 52.9 | 63.5 | 28.6 | 18.9 | 32 |
| NCCCCNOCCCN | – | > 100 | > 100 | > 100 | > 100 | > 100 | > 100 | > 100 | > 100 | > 100 | > 100 | > 100 | > 100 | > 100 | > 100 | > 100 | > 100 | > 100 | – | > 100 |
| C=CCN1C(=O)NC(=O)/C(=C/c2c3ccccc3cc3ccccc23)C1=O | – | > 100 | 48.8 | 66.5 | 31.8 | 39.3 | – | 48.9 | > 10 | 44.4 | 34.6 | 68.1 | 66 | 45 | 74 | > 100 | 37.4 | 36.5 | – | 37.2 |
| CC(C)(CCCCC(C)(C)NC1=NCCO1)NC1=NCCO1 | > 10 | > 10 | > 10 | > 10 | > 10 | > 10 | > 10 | > 10 | > 10 | > 10 | > 10 | > 10 | > 10 | > 10 | > 10 | > 10 | > 10 | > 10 | – | > 10 |
| COC(=O)C1=C(O)C(C(=O)OC)[C@@]2(O)[C@@H](C(=O)OC)[C@H](C)C[C@@H]1[C@@H]2C(=O)OC (some centres not stated) | 44.3 | > 100 | 69.6 | > 100 | 58.1 | > 100 | > 100 | > 100 | > 100 | 98.9 | 58.9 | > 100 | 72.9 | 78.1 | > 100 | – | > 100 | 53.2 | – | 39.9 |
